Results reported in patent publication US5357044A, “Cecropins fusion proteins” (Xoma Corporation, priority 1993, dated 1994).
Ends that are not written are not given here.

Tests used:
[1] = system: Bacillus megaterium; settings: background art; cited from earlier work
[2] = system: E. coli; settings: background art; cited from earlier work
[3] = system: eight other species of bacteria; settings: background art; cited from earlier work
[4] = system: Streptococcus faecalis; test: Bactericidal agar-well halo assay, Streptococcus faecalis; type: cell-based; settings: ampicillin 750 ng
Method: (§1) Agar plates (8 cm in diameter) were prepared with 6 ml of TYE medium containing about 10^7 viable cells of test organism. Wells, 2 mm diameter, were punched in the plates. The test material was dissolved in 50 mM phosphate buffer (pH 6.6) and 3 ul was applied to each well. The diameters of the inhibition zones, or halos, around the wells were measured after overnight incubation at 25° C. To determine a standard of halo formation, CA 1-33 protein was used. 1 ug and 3 ug of CA 1-33 in well applications caused halos with diameters of 8 mm and 11 mm respectively, on media infused with E. coli strain JF568. 10 ug and 30 ug of cyanogen bromide-digested pCA3A araB-CA fusion protein caused halos with diameters 7 mm and 18 mm respectively.
(§2) Cyanogen bromide-digested fusion protein fractionated by HPLC was also applied to this assay. […] Other bacterial and yeast strains were also tested in this assay. Cyanogen bromide-digested and undigested fusion protein samples were applied in the amounts described above in the testing of E. coli strain JF568, and the resulting halo diameters were measured.

[5] = system: Salmonella derby; test: Bactericidal agar-well halo assay, Salmonella derby; type: cell-based
Method: as §1, §2

[6] = system: Erwinia carotovora EC; test: Bactericidal agar-well halo assay, Erwinia carotovora EC; type: cell-based
Method: as §1, §2

[7] = system: E. coli 5506; test: Bactericidal agar-well halo assay, E. coli 5506; type: cell-based
Method: as §1, §2

[8] = system: E. coli 5506 DR; test: Bactericidal agar-well halo assay, E. coli 5506 DR; type: cell-based
Method: as §1, §2

[9] = system: Pseudomonas PS-9; test: Bactericidal agar-well halo assay, Pseudomonas PS-9; type: cell-based; settings: CNBr-digested fusion protein isolate 5 ug
Method: as §1, §2

[10] = system: Klebsiella pneumoniae; test: Bactericidal agar-well halo assay, Klebsiella pneumoniae; type: cell-based; settings: CNBr-digested fusion protein isolate 5 ug
Method: as §1, §2

[11] = system: Xenohabdus nematophillus; test: Bactericidal agar-well halo assay, Xenohabdus nematophillus; type: cell-based; settings: CNBr-digested fusion protein isolate 5 ug
Method: Cyanogen bromide-digested fusion protein fractionated by HPLC was also applied to this assay. […] Cyanogen bromide-digested and undigested fusion protein samples were applied in the amounts described above in the testing of E. coli strain JF568, and the resulting halo diameters were measured.

[12] = system: Serratia marcesens; test: Bactericidal agar-well halo assay, Serratia marcesens; type: cell-based; settings: CNBr-digested fusion protein isolate 5 ug
Method: as §1, §2

[13] = CNBr-digested fusion protein isolate 5 ug

## cecropin D
[1]
  sensitivity of the bacterium to the cecropin: relatively resistant
[2]
  activity against E. coli relative to cecropins A and B: almost as much activity
[3]
  activity against eight other species of bacteria: significantly reduced activity

## cecropin B: natural antibacterial peptide purified from immune hemolymph; sequence shown in b10 (KWKVFKKIEKMGRNIRNGIVKAGPAIAVLGEAKAL; UniProt P01508 27-61, looked up)
[1]
  sensitivity of the bacterium to the cecropin: highly sensitive

## CC1(C)S[C@@H]2[C@H](NC(=O)[C@H](N)c3ccccc3)C(=O)N2[C@H]1C(=O)O [Ampicillin, ampicillin]
[4]
  Halo Activity in Millimeters: 7.0 Millimeters
[5]; ampicillin 750 ng
  Halo Activity in Millimeters: 6.0 Millimeters
[6]; ampicillin 750 ng
  Halo Activity in Millimeters: 6.5 Millimeters
[7]; ampicillin 750 ng
  Halo Activity in Millimeters: 4.5 Millimeters
[8]; ampicillin 750 ng
  Halo Activity in Millimeters: 4.5 Millimeters

## pCA3D: CNBr-digested araB-CA fusion protein isolate from E. coli carrying plasmid pCA3D; releases wild type cecropin A (KWKLFKKIEKVGQNIRDGIIKAGPAVAVVGQATQIAK; ends and bridges not checked; UniProt P01507 27-63, looked up)
[5]; [13]
  Halo Activity in Millimeters: 5.0 Millimeters
[9]
  Halo Activity in Millimeters: 2.0 Millimeters
[10]
  Halo Activity in Millimeters: 4.5 Millimeters
[6]; [13]
  Halo Activity in Millimeters: 4.75 Millimeters
[11]
  Halo Activity in Millimeters: 2.75 Millimeters
[12]
  Halo Activity in Millimeters: 1.0 Millimeters
[7]; [13]
  Halo Activity in Millimeters: 5.0 Millimeters
[8]; [13]
  Halo Activity in Millimeters: 6.5 Millimeters

## cecropin A: natural antibacterial peptide purified from immune hemolymph of the Cecropia moth (KWKLFKKIEKVGQNIRDGIIKAGPAVAVVGQATQIAK; UniProt P01507 27-63, looked up)
[1]
  sensitivity of the bacterium to the cecropin: highly sensitive
